{"source": "paper PMC8655505", "about": "“Stimulation of the Runx2 P1 promoter by collagen-derived dipeptide prolyl-hydroxyproline bound to Foxg1 and Foxo1 in osteoblasts” (Bioscience Reports, 2021)", "molecular_target": "T1, Foxo1 (Mus musculus, UniProt Q9R1E0)", "T1 construct": "full-length", "T1 sequence (Q9R1E0 whole entry)": "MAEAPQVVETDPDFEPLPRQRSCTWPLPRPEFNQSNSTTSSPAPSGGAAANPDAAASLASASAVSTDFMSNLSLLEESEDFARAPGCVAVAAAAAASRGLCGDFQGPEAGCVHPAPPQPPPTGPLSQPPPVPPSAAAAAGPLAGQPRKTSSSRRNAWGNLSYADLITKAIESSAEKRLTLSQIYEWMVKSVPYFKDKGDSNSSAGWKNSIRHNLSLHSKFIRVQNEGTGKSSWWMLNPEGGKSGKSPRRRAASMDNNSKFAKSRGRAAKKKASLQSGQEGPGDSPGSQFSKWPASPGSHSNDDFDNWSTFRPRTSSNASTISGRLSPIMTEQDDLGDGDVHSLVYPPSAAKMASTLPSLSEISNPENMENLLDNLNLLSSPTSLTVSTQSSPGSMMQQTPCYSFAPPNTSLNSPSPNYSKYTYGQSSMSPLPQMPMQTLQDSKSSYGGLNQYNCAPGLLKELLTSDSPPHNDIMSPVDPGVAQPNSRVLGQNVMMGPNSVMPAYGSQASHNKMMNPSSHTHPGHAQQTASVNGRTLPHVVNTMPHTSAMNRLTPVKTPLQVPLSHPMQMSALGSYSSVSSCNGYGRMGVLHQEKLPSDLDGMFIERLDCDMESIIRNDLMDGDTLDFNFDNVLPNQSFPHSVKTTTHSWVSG", "experiment": "competition of free Pro-Hyp with (Pro-Hyp-Gly)5-linked magnetic beads, Western blot", "format": "binding", "settings": "free Pro-Hyp 0.1 or 10 mM; pH 7.8, 150 mM KCl, 4 °C overnight; cell extract", "note": "Square brackets hold non-standard residues; d marks the D form. Peptide text beside a SMILES is read from it. Hyp = O=C(O)[C@@H]1C[C@@H](O)CN1"}
{"smiles": "O=C(O)[C@@H]1C[C@@H](O)CN1C(=O)[C@@H]1CCCN1", "note": "[Pro-Hyp] (H-Pro-[Hyp]-OH)", "values": [{"measurement": "competition of free Pro-Hyp with (Pro-Hyp-Gly)5-linked magnetic beads, Western b", "result": "These data suggest that Pro-Hyp binds to Foxo1."}]}
